Measurements as given in patent US20060069132A1, “Azolecarboxamide herbicides” (priority 2004, published 2006).

What was measured:
giant foxtail = experiment: Test C pre-/postemergence herbicide test; type: in vivo, Setaria faberi; settings: preemergence
Method in brief: (§1)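 Preemergence: seeds planted and treated with compound in non-phytotoxic solvent with surfactant; postemergence: plants at 2 to 18 cm (1- to 4-leaf stage) sprayed likewise. Kept in greenhouse 12 to 14 days, then visually rated against controls, 0 (no effect) to 100 (complete control).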

morningglory = experiment: Test C pre-/postemergence herbicide test; type: in vivo, Ipomoea coccinea; parameters: key to Plant response rating, Morningglory: 0 = no effect, 100 = complete control; settings: preemergence
Method in brief: as §1

lambsquarters = experiment: Test C pre-/postemergence herbicide test; type: in vivo, Chenopodium album; settings: preemergence
Method in brief: as §1

[1] = test system: common (oilseed) sunflower; experiment: Test C pre-/postemergence herbicide test; type: in vivo, Helianthus annuus; settings: preemergence
Method in brief: as §1

woolly cupgrass = experiment: Test C pre-/postemergence herbicide test; type: in vivo, Eriochloa villosa; settings: preemergence
Method in brief: as §1

corn = experiment: Test C pre-/postemergence herbicide test; type: in vivo, Zea mays; settings: preemergence
Method in brief: as §1

rice = experiment: Test C flooded paddy test; type: in vivo, Oryza sativa; settings: for Plant response rating, Rice: 500 g ai/ha, visual rating after 12 to 14 days
Method in brief: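 Plants were grown to the 1- to 4-leaf stage (2–18 cm) and then treated postemergence, or grown to the 2-leaf stage for the flooded paddy test. They were held in a greenhouse for 12 to 14 days and then scored by eye against controls, where 0 is no effect and 100 is complete control.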

Surinam grass = experiment: Test C pre-/postemergence herbicide test; type: in vivo, Urochloa decumbens; settings: preemergence
Method in brief: as §1

ducksalad = experiment: Test C flooded paddy test; type: in vivo, Heteranthera limosa; settings: for Plant response rating, Ducksalad: 500 g ai/ha, visual rating after 12 to 14 days
yellow nutsedge = experiment: Test C pre-/postemergence herbicide test; type: in vivo, Cyperus esculentus; settings: preemergence
Method in brief: as §1

[2] = test system: smallflower umbrella sedge; experiment: Test C flooded paddy test; type: in vivo, Cyperus difformis; settings: for Plant response rating, Sedge, Umbrella: 500 g ai/ha, visual rating after 12 to 14 days
[3] = 125 g ai/ha, scale 0 (no effect) to 100 (complete control), visual, 12 to 14 days
[4] = 500 g ai/ha, scale 0 to 100 (0 no effect, 100 complete control), visual, 12 to 14 days
[5] = 125 g ai/ha, scale 0 to 100 (0 no effect, 100 complete control)
[6] = 250 g ai/ha, scale of 0 to 100, 0 is no effect, 100 is complete control
[7] = scale 0 to 100 (0 no effect, 100 complete control)

CCn1nc(C(C)(C)C)cc1C(=O)Nc1cc(C(=S)N(C)C)ccc1F [Compound 294]
Plant response rating, Foxtail, Giant (giant foxtail; [3]): 80 | Plant response rating, Foxtail, Giant (giant foxtail; 250 g ai/ha, scale 0-100): 90 | Plant response rating, Foxtail, Giant (giant foxtail; [4]): 90 | Plant response rating, Morningglory (morningglory; 62 g ai/ha, scale 0 to 100): 30 | Plant response rating, Morningglory (morningglory; [3]): 30 | Plant response rating, Morningglory (morningglory; 250 g ai/ha, scale 0-100): 50 | Plant response rating, Morningglory (morningglory; [4]): 50 | Plant response rating, Lambsquarters (lambsquarters; 62 g ai/ha, scale 0 to 100): 100 | Plant response rating, Lambsquarters (lambsquarters; [3]): 100 | Plant response rating, Lambsquarters (lambsquarters; 250 g ai/ha, scale 0-100): 100 | Plant response rating, Lambsquarters (lambsquarters; [4]): 100 | Plant response rating, Sunflower ([1]; 62 g ai/ha, scale 0 to 100): 30 | Plant response rating, Sunflower ([1]; 250 g ai/ha, scale 0-100): 100 | Plant response rating, Sunflower [1, 4]: 100 | Plant response rating, Cupgrass, Woolly (woolly cupgrass; 62 g ai/ha, scale 0 to 100): 55 | Plant response rating, Cupgrass, Woolly (woolly cupgrass; [3]): 75 | Plant response rating, Cupgrass, Woolly (woolly cupgrass; 250 g ai/ha, scale 0-100): 80 | Plant response rating, Cupgrass, Woolly (woolly cupgrass; [4]): 85 | Plant response rating, Corn (corn; 62 g ai/ha, scale 0 to 100): 55 | Plant response rating, Corn (corn; [3]): 60 | Plant response rating, Corn (corn; 250 g ai/ha, scale 0-100): 60 | Plant response rating, Corn (corn; [4]): 80 | Rice plant response rating (rice; 62 g ai/ha, scale 0 to 100): 70 | Rice plant response rating (rice; [5]): 75 | Rice plant response rating (rice; [6]): 85 | Plant response rating, Rice (rice; [7]): 90 | Plant response rating, Surinam Grass (Surinam grass; 62 g ai/ha, scale 0 to 100): 85 | Plant response rating, Surinam Grass (Surinam grass; 250 g ai/ha, scale 0-100): 100 | Plant response rating, Surinam Grass (Surinam grass; [4]): 100 | Ducksalad plant response rating (ducksalad; 62 g ai/ha, scale 0 to 100): 90 | Ducksalad plant response rating (ducksalad; [5]): 95 | Ducksalad plant response rating (ducksalad; [6]): 95 | Plant response rating, Ducksalad (ducksalad; [7]): 95 | Plant response rating, Nutsedge, Yellow (yellow nutsedge; 62 g ai/ha, scale 0 to 100): 50 | Plant response rating, Nutsedge, Yellow (yellow nutsedge; [3]): 55 | Plant response rating, Nutsedge, Yellow (yellow nutsedge; 250 g ai/ha, scale 0-100): 80 | Plant response rating, Nutsedge, Yellow (yellow nutsedge; [4]): 90 | Sedge, Umbrella plant response rating ([2]; 62 g ai/ha, scale 0 to 100): 80 | Sedge, Umbrella plant response rating [2, 5]: 85 | Sedge, Umbrella plant response rating [2, 6]: 90 | Plant response rating, Sedge, Umbrella [2, 7]: 90

CCN(C)C(=O)c1ccc(F)c(NC(=O)C2CC(C(C)(C)C)=NN2CC)c1 (racemic) [Compound 307]
Plant response rating, Foxtail, Giant (giant foxtail; 62 g ai/ha, scale 0 to 100): 70 | Plant response rating, Foxtail, Giant (giant foxtail; [3]): 85 | Plant response rating, Foxtail, Giant (giant foxtail; 250 g ai/ha, scale 0-100): 100 | Plant response rating, Foxtail, Giant (giant foxtail; [4]): 100 | Plant response rating, Morningglory (morningglory; 62 g ai/ha, scale 0 to 100): 0 | Plant response rating, Morningglory (morningglory; [3]): 10 | Plant response rating, Morningglory (morningglory; 250 g ai/ha, scale 0-100): 10 | Plant response rating, Morningglory (morningglory; [4]): 15 | Plant response rating, Lambsquarters (lambsquarters; 62 g ai/ha, scale 0 to 100): 100 | Plant response rating, Lambsquarters (lambsquarters; [3]): 100 | Plant response rating, Lambsquarters (lambsquarters; 250 g ai/ha, scale 0-100): 100 | Plant response rating, Lambsquarters (lambsquarters; [4]): 100 | Plant response rating, Sunflower ([1]; 62 g ai/ha, scale 0 to 100): 0 | Plant response rating, Sunflower ([1]; 250 g ai/ha, scale 0-100): 60 | Plant response rating, Sunflower [1, 4]: 60 | Plant response rating, Cupgrass, Woolly (woolly cupgrass; 62 g ai/ha, scale 0 to 100): 5 | Plant response rating, Cupgrass, Woolly (woolly cupgrass; [3]): 40 | Plant response rating, Cupgrass, Woolly (woolly cupgrass; 250 g ai/ha, scale 0-100): 70 | Plant response rating, Cupgrass, Woolly (woolly cupgrass; [4]): 85 | Plant response rating, Corn (corn; 62 g ai/ha, scale 0 to 100): 0 | Plant response rating, Corn (corn; [3]): 20 | Plant response rating, Corn (corn; 250 g ai/ha, scale 0-100): 30 | Plant response rating, Corn (corn; [4]): 45 | Rice plant response rating (rice; 62 g ai/ha, scale 0 to 100): 55 | Rice plant response rating (rice; [5]): 60 | Rice plant response rating (rice; [6]): 65 | Plant response rating, Rice (rice; [7]): 80 | Plant response rating, Surinam Grass (Surinam grass; 62 g ai/ha, scale 0 to 100): 70 | Plant response rating, Surinam Grass (Surinam grass; 250 g ai/ha, scale 0-100): 90 | Plant response rating, Surinam Grass (Surinam grass; [4]): 90 | Ducksalad plant response rating (ducksalad; 62 g ai/ha, scale 0 to 100): 60 | Ducksalad plant response rating (ducksalad; [5]): 70 | Ducksalad plant response rating (ducksalad; [6]): 90 | Plant response rating, Ducksalad (ducksalad; [7]): 90 | Plant response rating, Nutsedge, Yellow (yellow nutsedge; 62 g ai/ha, scale 0 to 100): 5 | Plant response rating, Nutsedge, Yellow (yellow nutsedge; [3]): 20 | Plant response rating, Nutsedge, Yellow (yellow nutsedge; 250 g ai/ha, scale 0-100): 50 | Plant response rating, Nutsedge, Yellow (yellow nutsedge; [4]): 50 | Sedge, Umbrella plant response rating ([2]; 62 g ai/ha, scale 0 to 100): 40 | Sedge, Umbrella plant response rating [2, 5]: 70 | Sedge, Umbrella plant response rating [2, 6]: 80 | Plant response rating, Sedge, Umbrella [2, 7]: 85
